Laboratory results taken from patent US10010560B2, “Small molecule HSP70 inhibitors” (THE TRUSTEES OF THE UNIVERSITY OF PENNSYLVANIA, priority 2014, dated 2018).
Values joined by “and” are separate entries in the source; they are usually repeats but may differ in a detail not shown here. Equal entries are not always repeated. Blank lines part the entries; values can stand above or below the molecule they belong to.

Columns and labels:
[1] = tested on: melanoma tumor cell line WM989; assay: Combination with BRAF inhibitor Vemurafenib, viability; assay type: cell-based, human
Excerpt: FIG. 6 is a line graph illustrating that PET-16 synergizes with the BRAF inhibitor Vemurafenib to reduce the viability of the melanoma tumor cell line WM989 (▪). WM989 cells treated singularly with Vemurafenib are depicted by (●). No synergy was detected between Vemurafenib and PES-Cl.

[2] = target: T1, ATP-HSP70 (WT) (Homo sapiens, UniProt P0DMV8, E110D); assay: ITC binding to ATP-bound full-length HSP70; conditions: wild-type full-length ATP-bound HSP70
T1 construct: Full-length recombinant proteins of HSP70 (aa 1-641) as well as DnaK (aa 1-638); His6 (N); made in house; host or cells: E. coli BL21 Star (DE3)
Excerpt: The human stress-inducible HSP70 (residues 1-641 or 386-616 of SEQ ID NO: 2) and E. coli DnaK (residues 1-638, 389-607, or 393-507 of SEQ ID NO: 4) were cloned into the pET25 vector (EMD Millipore Chemicals, Inc., Billerica, Mass., USA) between the NdeI and XhoI restriction sites. The full-length HSP70 and DnaK mutants were constructed by PCR-based site-directed mutagenesis using the QuikChange™ Site-Directed Mutagenesis Kit (Agilent Technologies, Inc., Santa Clara, Calif., USA). All plasmid inserts were verified by DNA sequencing. All HSP70 and DnaK variants were produced with a N-terminal His6-tag in the E. coli BL21 Star (DE3) strain (Invitrogen catalog number C6010-03). The resulting strains were grown at 37° C. in LB medium containing 50 μg/mL of carbenicillin (Sigma-Aldrich Co., St. Louis, Mo., USA). At an OD600 about 0.3 to about 0.5, protein expression was induced with 0.5 mM isopropyl-β-D-thiogalactopyranoside (IPTG), and cells were subsequently grown at 25° C. for about 16 h. Cells were collected by centrifugation and resuspended in the Bugbuster® Master Mix (EMD Millipore Chemicals catalog number 71456-4), supplemented with protease inhibitors, 1 mM diethiothreitol (DTT) and 20 mM imidazole. The His6-tagged fusion proteins were isolated on Ni^2+-chelating resins (Ni-NTA Superflow, Qiagen catalog number 30410) by standard procedures. When necessary, size-exclusion chromatography on a Superdex® 200 or a Superose® 6 10/300 GL columns (GE Healthcare) analytical column pre-equilibrated with 1× Dulbecco's Phosphate Buffered Saline (DPBS—Invitrogen 14190-136), 1 mM Tris-HCl (pH 7.4) or 10 mM Tris-HCl (pH 7) was used as the final purification step. The purified DnaK proteins were dialyzed thoroughly against 1× DPBS with 5 mM DTT at 4° C., for crystallization trials involving the small molecule inhibitor PET-16. For isothermal titration calorimetry studies, all HSP70 and DnaK variants were dialyzed extensively against the buffers as noted below under the section entitled “Isothermal Titration calorimetry Studies”. […]

[3] = target: T2, ADP-HSP70 (WT, aa 1-641) (Homo sapiens, UniProt P0DMV8, E110D); assay: ITC binding to ADP-bound full-length HSP70; conditions: ITC, wild-type full-length ADP-bound HSP70
T2 construct: Full-length recombinant proteins of HSP70 (aa 1-641) as well as DnaK (aa 1-638); His6 (N); made in house; host or cells: E. coli BL21 Star (DE3)
Excerpt: The human stress-inducible HSP70 (residues 1-641 or 386-616 of SEQ ID NO: 2) and E. coli DnaK (residues 1-638, 389-607, or 393-507 of SEQ ID NO: 4) were cloned into the pET25 vector (EMD Millipore Chemicals, Inc., Billerica, Mass., USA) between the NdeI and XhoI restriction sites. The full-length HSP70 and DnaK mutants were constructed by PCR-based site-directed mutagenesis using the QuikChange™ Site-Directed Mutagenesis Kit (Agilent Technologies, Inc., Santa Clara, Calif., USA). All plasmid inserts were verified by DNA sequencing. All HSP70 and DnaK variants were produced with a N-terminal His6-tag in the E. coli BL21 Star (DE3) strain (Invitrogen catalog number C6010-03). The resulting strains were grown at 37° C. in LB medium containing 50 μg/mL of carbenicillin (Sigma-Aldrich Co., St. Louis, Mo., USA). At an OD600 about 0.3 to about 0.5, protein expression was induced with 0.5 mM isopropyl-β-D-thiogalactopyranoside (IPTG), and cells were subsequently grown at 25° C. for about 16 h. Cells were collected by centrifugation and resuspended in the Bugbuster® Master Mix (EMD Millipore Chemicals catalog number 71456-4), supplemented with protease inhibitors, 1 mM diethiothreitol (DTT) and 20 mM imidazole. The His6-tagged fusion proteins were isolated on Ni^2+-chelating resins (Ni-NTA Superflow, Qiagen catalog number 30410) by standard procedures. When necessary, size-exclusion chromatography on a Superdex® 200 or a Superose® 6 10/300 GL columns (GE Healthcare) analytical column pre-equilibrated with 1× Dulbecco's Phosphate Buffered Saline (DPBS—Invitrogen 14190-136), 1 mM Tris-HCl (pH 7.4) or 10 mM Tris-HCl (pH 7) was used as the final purification step. The purified DnaK proteins were dialyzed thoroughly against 1× DPBS with 5 mM DTT at 4° C., for crystallization trials involving the small molecule inhibitor PET-16. For isothermal titration calorimetry studies, all HSP70 and DnaK variants were dialyzed extensively against the buffers as noted below under the section entitled “Isothermal Titration calorimetry Studies”. The dialyzed proteins were subsequently microcentrifugated at 15,000×g for 5 min at 4° C. and aliquots of the soluble proteins were stored at −80° C.
(§1) All ITC experiments were performed using a MicroCal VP-ITC isothermal titration calorimeter (MicroCal). Both full-length HSP70 and DnaK proteins and DnaK (aa 393-507) proteins were prepared in 1 mM Tris-HCl (pH 7.4) buffer containing 3% dimethylsulfoxide (DMSO). The HSP70 (aa 386-616) protein was prepared in buffer containing 3% DMSO and 10 mM Tris-HCl, pH 7. The syringe was loaded with purified protein in either 1 mM Tris-HCl (pH 7.4) buffer containing 3% DMSO or 10 mM Tris-HCl (pH 7) buffer containing 3% DMSO. The sample cell of the calorimeter was loaded with PES, PET-16 or NRLLLTG (SEQ ID NO: 7) prepared in the same buffer. All solutions were degassed for 5 min.
The titrations involving the full-length purified proteins were performed at 25° C. with injection volumes of 12 μL and a spacing of 300 s. The titrations involving the purified HSP70 (aa 386-616) and DnaK (aa 393-507) were performed at 42° C. with injection volumes of 12 μL and a spacing of 300 s. Heat from the pre-injection was not used during fitting. The data were fit using a one-site binding model available in the Origin® ITC data analysis software (MicroCal Origin® V5.0, MicroCal Software, Northampton, Mass.). Error values obtained from the MicroCal Origin® V5.0 software were averaged and reported. […]

[4] = tested on: E. coli DH5α; assay: Growth of E. coli DH5α at 43° C.; assay type: cell-based; conditions: 6 h at 43° C.
Description: FIGS. 2A-2D illustrate the cytotoxicity of PET-16 to human tumor cells and its inhibition on E. coli growth. FIG. 2A is a line graph with data obtained from MTT assays of human melanoma cell lines treated with the indicated concentrations of PES or PET-16 for 72 h. The corresponding cell survival is normalized to vehicle (DMSO) treatment. Average and standard deviation (s.d.) from three independent experiments are shown. FIG. 2B are bar graphs of human melanoma (A875) cells and nontransformed human (IMR90) fibroblasts that were treated with DMSO, 10 μM PES or 10 μM PET-16 for 24 h. […] FIG. 2C is a line graph illustrating the growth of E. coli DH5α treated with different concentrations of PES or PET-16 for 6 h at 43° C. Error bars represent the s.d. of four independent experiments. FIG. 2D is a bar graph illustrating the growth of E. coli DH5α treated with DMSO, 30 μM PET-16 or 30 μM TPP for 6 h at 43° C. Error bars represent the s.d. of four independent experiments.
FIGS. 9A-9H illustrate that PET-16 binds directly to ADP-bound HSP70 and is cytotoxic to human tumor cells. FIGS. 9A-9C are ITC assays of the interaction of PET-3C with purified human HSP70-ADP (A), human HSP70-ATP (B) and DnaK-ADP (C) proteins. The data are representative of three independent experiments. FIG. 9D is a line graph of an MTT assay of the human melanoma cell line 1205 Lu treated with the indicated concentrations of PET-16 (---) or PET-3C (-) for 72 h. The corresponding cell survival is normalized to the DMSO-treatment. Average and standard deviation (s.d.) from three independent experiments are shown. FIG. 9E is a line graph illustrating the growth of E. coli DH5α strain treated with different concentrations of PET-16 (black) or PET-3C (gray) for 6 h at 43° C. Error bars represent the s.d. of four independent experiments. FIG. 9F is a bar graph illustrating the growth of E. coli DH5α treated with DMSO, 30 μM PET-16, 30 μM PET-3C or 30 μM TPP for 6 h at 43° C. Error bars represent the s.d. of four independent experiments. […]

[5] = target: T3, DnaK SBD (Escherichia coli, UniProt P0A6Y8); assay: ITC binding to DnaK SBD; parameters: species or system E. coli; conditions: in words
T3 construct: The titrations involving the purified HSP70 (aa 386-616) and DnaK (aa 393-507) were performed at 42° C; His6 (N); made in house; host or cells: E. coli BL21 Star (DE3)
Description: as §1
The titrations involving the full-length purified proteins were performed at 25° C. with injection volumes of 12 μL and a spacing of 300 s. The titrations involving the purified HSP70 (aa 386-616) and DnaK (aa 393-507) were performed at 42° C. with injection volumes of 12 μL and a spacing of 300 s. Heat from the pre-injection was not used during fitting. The data were fit using a one-site binding model available in the Origin® ITC data analysis software (MicroCal Origin® V5.0, MicroCal Software, Northampton, Mass.). Error values obtained from the MicroCal Origin® V5.0 software were averaged and reported.

[6] = tested on: tumor cells; assay: Cytotoxic effect on tumor cells; assay type: cell-based; conditions: in words
Excerpt: FIGS. 1A to 1G provide the PET-16 and analogs thereof. FIGS. 1A-1C provide the chemical structures of PES, Biotin-PES, and PES-Cl, respectively. The chemical names and the major functional groups are indicated. […] The chemical names are indicated. FIGS. 1E-1G are the chemical structures of PET-16, PET-3C and PET-DR, respectively. The chemical names and the major functional groups are indicated.

[7] = target: T4, HSP70 (aa 386-616) (Homo sapiens, UniProt P0DMV8); assay: ITC binding to C-terminal domain of HSP70; conditions: in words
T4 construct: His6 (N); made in house; host or cells: E. coli BL21 Star (DE3)
Excerpt: The human stress-inducible HSP70 (residues 1-641 or 386-616 of SEQ ID NO: 2) and E. coli DnaK (residues 1-638, 389-607, or 393-507 of SEQ ID NO: 4) were cloned into the pET25 vector (EMD Millipore Chemicals, Inc., Billerica, Mass., USA) between the NdeI and XhoI restriction sites. The full-length HSP70 and DnaK mutants were constructed by PCR-based site-directed mutagenesis using the QuikChange™ Site-Directed Mutagenesis Kit (Agilent Technologies, Inc., Santa Clara, Calif., USA). All plasmid inserts were verified by DNA sequencing. All HSP70 and DnaK variants were produced with a N-terminal His6-tag in the E. coli BL21 Star (DE3) strain (Invitrogen catalog number C6010-03). The resulting strains were grown at 37° C. in LB medium containing 50 μg/mL of carbenicillin (Sigma-Aldrich Co., St. Louis, Mo., USA). At an OD600 about 0.3 to about 0.5, protein expression was induced with 0.5 mM isopropyl-β-D-thiogalactopyranoside (IPTG), and cells were subsequently grown at 25° C. for about 16 h. Cells were collected by centrifugation and resuspended in the Bugbuster® Master Mix (EMD Millipore Chemicals catalog number 71456-4), supplemented with protease inhibitors, 1 mM diethiothreitol (DTT) and 20 mM imidazole. The His6-tagged fusion proteins were isolated on Ni^2+-chelating resins (Ni-NTA Superflow, Qiagen catalog number 30410) by standard procedures. […]

T2 sequence (P0DMV8 whole entry E110D, the tested form may be a part): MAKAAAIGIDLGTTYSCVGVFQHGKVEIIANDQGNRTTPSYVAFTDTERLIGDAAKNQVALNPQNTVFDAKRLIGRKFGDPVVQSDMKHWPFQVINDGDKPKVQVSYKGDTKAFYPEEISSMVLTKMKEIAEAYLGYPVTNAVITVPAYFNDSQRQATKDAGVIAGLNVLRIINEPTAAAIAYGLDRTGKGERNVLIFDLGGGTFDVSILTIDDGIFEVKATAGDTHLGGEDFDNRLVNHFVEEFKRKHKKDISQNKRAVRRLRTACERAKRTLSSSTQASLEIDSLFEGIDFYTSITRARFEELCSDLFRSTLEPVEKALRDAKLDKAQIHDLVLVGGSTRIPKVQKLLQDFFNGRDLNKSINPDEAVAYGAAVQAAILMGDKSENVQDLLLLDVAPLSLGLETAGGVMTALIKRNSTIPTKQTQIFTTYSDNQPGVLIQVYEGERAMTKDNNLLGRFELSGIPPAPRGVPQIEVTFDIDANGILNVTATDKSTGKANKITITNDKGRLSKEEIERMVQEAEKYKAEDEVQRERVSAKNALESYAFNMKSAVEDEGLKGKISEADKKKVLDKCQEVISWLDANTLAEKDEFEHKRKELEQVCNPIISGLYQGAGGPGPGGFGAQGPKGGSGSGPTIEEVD
T3 sequence (P0A6Y8 393-507): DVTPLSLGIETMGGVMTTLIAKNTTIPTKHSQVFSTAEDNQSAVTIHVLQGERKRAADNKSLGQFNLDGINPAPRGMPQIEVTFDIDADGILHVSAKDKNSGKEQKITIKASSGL
T4 sequence (P0DMV8 386-616): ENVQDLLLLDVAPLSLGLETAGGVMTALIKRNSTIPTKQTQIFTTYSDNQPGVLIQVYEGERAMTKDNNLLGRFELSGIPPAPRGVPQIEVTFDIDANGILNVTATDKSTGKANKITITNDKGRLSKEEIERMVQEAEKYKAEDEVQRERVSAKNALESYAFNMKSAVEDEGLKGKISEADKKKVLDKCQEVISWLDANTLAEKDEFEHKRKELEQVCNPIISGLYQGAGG
T1 sequence (P0DMV8 whole entry E110D, the tested form may be a part): as the sequence (P0DMV8 whole entry E110D, the tested form may be a part) above

Molecule: 2-(3-chlorophenyl) ethynesulfonamide [PES-Cl, reference compound]
- synergy with PLX4032 (Vemurafenib) [1]: did not synergize

- Kd [2]: 1250 ± 15 µM
- Kd [3]: ~10 µM and 10 µM
Molecule: CC(C)C[C@H](NC(=O)[C@H](CC(C)C)NC(=O)[C@H](CCCNC(=N)N)NC(=O)[C@@H](N)CC(N)=O)C(=O)N[C@@H](CC(C)C)C(=O)N[C@H](C(=O)NCC(=O)O)[C@@H](C)O [NRLLLTG, reference compound]

Molecule: c1ccc(P(c2ccccc2)c2ccccc2)cc1 [TPP, triphenylphosphine]
- effect on growth of E. coli [4]: no negative effect
- binding to DnaK SBD [5]: does not bind
- cytotoxicity for tumor cells [6]: little discernible effect
- binding to HSP70 SBD [7]: does not bind
